# Experimental data taken from article PMC4579064 (Toxicology and applied pharmacology, 2015).
# How the values were obtained:
# Assay type in all cases: biochemical
# [1] = biological target: T1, CYP2A6 (Homo sapiens, UniProt P11509); assay: recombinant CYP activity with fluorogenic substrate
# T1 sequence (P11509 1-494): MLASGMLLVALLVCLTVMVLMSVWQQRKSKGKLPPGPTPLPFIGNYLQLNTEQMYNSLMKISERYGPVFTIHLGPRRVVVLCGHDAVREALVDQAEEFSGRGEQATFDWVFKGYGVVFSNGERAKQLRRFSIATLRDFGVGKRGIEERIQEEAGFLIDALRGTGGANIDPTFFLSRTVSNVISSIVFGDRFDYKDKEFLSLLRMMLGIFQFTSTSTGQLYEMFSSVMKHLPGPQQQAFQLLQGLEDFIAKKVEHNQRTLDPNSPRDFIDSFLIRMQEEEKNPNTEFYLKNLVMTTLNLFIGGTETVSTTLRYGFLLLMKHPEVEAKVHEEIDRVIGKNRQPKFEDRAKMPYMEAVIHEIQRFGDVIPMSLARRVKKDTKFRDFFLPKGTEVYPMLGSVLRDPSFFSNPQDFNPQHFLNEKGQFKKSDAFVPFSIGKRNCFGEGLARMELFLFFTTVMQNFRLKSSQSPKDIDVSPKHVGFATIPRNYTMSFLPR
# [2] = biological target: CYP2C9 (Homo sapiens, UniProt P11712); assay: as above
# Chain of CYP2C9 (P11712 whole entry): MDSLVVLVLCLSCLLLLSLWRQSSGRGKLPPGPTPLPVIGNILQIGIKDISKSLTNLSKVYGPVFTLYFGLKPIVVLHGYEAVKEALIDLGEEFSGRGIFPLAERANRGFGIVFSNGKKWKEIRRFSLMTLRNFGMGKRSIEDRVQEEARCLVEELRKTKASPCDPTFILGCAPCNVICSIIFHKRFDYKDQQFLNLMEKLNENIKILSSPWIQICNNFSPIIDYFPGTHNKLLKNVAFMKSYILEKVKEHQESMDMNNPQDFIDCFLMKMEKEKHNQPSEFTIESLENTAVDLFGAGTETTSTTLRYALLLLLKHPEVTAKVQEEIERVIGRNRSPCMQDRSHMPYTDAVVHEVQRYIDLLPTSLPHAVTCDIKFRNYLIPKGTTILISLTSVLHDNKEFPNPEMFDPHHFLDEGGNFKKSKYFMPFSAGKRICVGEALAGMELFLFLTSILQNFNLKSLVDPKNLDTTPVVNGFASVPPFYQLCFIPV
# Chain of CYP2C9 (P16435 2-677 partner): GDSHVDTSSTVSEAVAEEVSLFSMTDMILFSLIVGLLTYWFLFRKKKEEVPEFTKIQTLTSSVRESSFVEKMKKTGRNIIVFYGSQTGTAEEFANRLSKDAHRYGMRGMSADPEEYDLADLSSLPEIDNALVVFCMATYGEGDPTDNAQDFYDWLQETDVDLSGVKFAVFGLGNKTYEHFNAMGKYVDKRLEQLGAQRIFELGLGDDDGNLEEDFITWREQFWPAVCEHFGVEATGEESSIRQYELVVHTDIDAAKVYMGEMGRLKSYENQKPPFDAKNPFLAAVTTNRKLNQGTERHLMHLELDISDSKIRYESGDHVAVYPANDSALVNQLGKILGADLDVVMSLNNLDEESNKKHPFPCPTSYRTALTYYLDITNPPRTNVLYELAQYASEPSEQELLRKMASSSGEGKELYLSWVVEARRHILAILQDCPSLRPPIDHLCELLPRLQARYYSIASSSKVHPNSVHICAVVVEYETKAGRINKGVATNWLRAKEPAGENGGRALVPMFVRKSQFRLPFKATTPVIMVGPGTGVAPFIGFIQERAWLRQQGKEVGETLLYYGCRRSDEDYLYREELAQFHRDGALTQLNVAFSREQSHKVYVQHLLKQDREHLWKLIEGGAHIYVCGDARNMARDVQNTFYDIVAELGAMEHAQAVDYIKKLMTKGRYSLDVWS
# [3] = biological target: CYP2C19 (Homo sapiens, UniProt P33261); assay: as above
# Chain of CYP2C19 (P33261 whole entry): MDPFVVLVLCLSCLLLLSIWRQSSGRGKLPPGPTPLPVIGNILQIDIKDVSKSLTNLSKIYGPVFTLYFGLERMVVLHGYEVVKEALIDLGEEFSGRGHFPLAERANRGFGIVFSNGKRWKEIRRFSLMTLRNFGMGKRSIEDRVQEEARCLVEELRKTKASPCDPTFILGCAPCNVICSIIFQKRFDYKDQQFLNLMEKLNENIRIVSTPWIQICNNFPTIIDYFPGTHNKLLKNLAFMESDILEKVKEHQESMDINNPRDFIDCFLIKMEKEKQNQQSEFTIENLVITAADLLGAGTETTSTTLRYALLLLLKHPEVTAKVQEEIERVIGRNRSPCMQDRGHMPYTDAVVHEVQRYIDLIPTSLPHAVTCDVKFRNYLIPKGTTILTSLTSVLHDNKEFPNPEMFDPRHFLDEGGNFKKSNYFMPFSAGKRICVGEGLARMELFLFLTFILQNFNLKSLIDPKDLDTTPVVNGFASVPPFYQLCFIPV
# Chain of CYP2C19 (P16435 2-677 partner): as the sequence (P16435 2-677 partner) above
# [4] = system: human liver microsomes; assay: paraoxon formation from parathion
compound,measurement,setting,value
"CC1=CC(=O)c2ccccc2C1=O [menadione, 2-methylnaphthalene-1,4-dione]",IC50,[1],8.01 ± 0.62 µM
same,IC50,[2],8.91 ± 0.57 µM
same,IC50,[3],8.51 ± 0.38 µM
same,paraoxon formation,[4],marked decrease
